# Where two headings read alike, the source gives them in different places.
# Columns and labels:
# Assay in all cases: microbe, parasite or virus in culture
# Assay type in all cases: cell-based, Hepatitis C virus (HCV)
# Settings in all cases: Replicon Assay A
# HCV replicon 1A = test system: HCV replicon 1A
# Outline: (§1)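 Read-out is replicon RNA per cell by real-time RT-PCR, normalised to cyclophilin mRNA amplified in the same well. Cells were exposed to compound for 3 days at 2000 cells/well in medium with 5% fetal bovine serum and 0.5% DMSO.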
# HCV replicon 1AY93H = test system: HCV replicon 1AY93H
# Outline: as §1
# HCV replicon 2B = test system: HCV replicon 2B
# Outline: as §1
# [1] = Hepatitis C virus, read-out: 1A Y93H IC50, HCV replicon 1A Y93H
# [2] = read-out: 2B IC50, HCV replicon 2B
# [3] = read-out: 1A Y93H IC50, HCV replicon 1A Y93H
# [4] = read-out: 1A Y93H IC50, replicon 1AY93H
# [5] = Hepatitis C virus, HCV replicon 1A
# [6] = Hepatitis C virus, read-out: 2B IC50, HCV replicon 2B
# [7] = Hepatitis C virus, read-out: 1A Y93H IC50 (nM), replicon 1AY93H
# [8] = Hepatitis C virus, read-out: 2B IC50 (nM), replicon 2B
smiles,measurement,setting,value
"COC(=O)N[C@H](C(=O)N1CCC[C@H]1c1ncc(-c2ccc3c(c2)OC(c2ccc(C4CC4)s2)n2c-3cc3cc(-c4cnc([C@@H]5CCCN5C(=O)[C@@H](NC(=O)OC)C(C)C)[nH]4)ccc32)[nH]1)C(C)C (single isomer, unassigned) [Compound 703]",IC50,HCV replicon 1A; HCV replicon 1A,30 pM
same,IC50,HCV replicon 1AY93H; [1],0.26 nM
same,IC50,HCV replicon 2B; [2],0.12 nM
"COC(=O)N[C@H](C(=O)N1CCC[C@H]1c1ncc(-c2ccc3c(c2)OC(c2cc4ccccc4s2)n2c-3cc3cc(-c4cnc([C@@H]5C[C@H]6C[C@H]6N5C(=O)[C@@H](NC(=O)OC)C(C)C)[nH]4)ccc32)[nH]1)C(C)C (single isomer, unassigned) [Compound 608]",IC50,HCV replicon 1A; HCV replicon 1A,3.5 pM
same,IC50,HCV replicon 1AY93H; [3],0.0529 nM
same,IC50,HCV replicon 2B; [2],0.031 nM
"COC(=O)NC(C(=O)N1CCC[C@H]1c1ncc(-c2ccc3c(c2)cc2n3C(c3ccc(C4CC4)s3)Oc3cc(-c4cnc([C@@H]5CCCN5C(=O)[C@@H](NC(=O)OC)C(C)C)[nH]4)cc(F)c3-2)[nH]1)C1CCO[C@@H](C)C1 (single isomer, unassigned) [Compound 355]",IC50,HCV replicon 1A; replicon 1A,1.9 pM
same,IC50,HCV replicon 1AY93H; [4],1.75 nM
same,IC50,"HCV replicon 2B; read-out: 2B IC50, replicon 2B",2.8 nM
"COC(=O)N[C@H](C(=O)N1CCC[C@H]1c1ncc(-c2ccc3c(c2)OC(c2cc4ccccc4s2)n2c-3cc3cc(-c4cnc([C@@H]5C[C@@H](F)CN5C(=O)[C@@H](NC(=O)OC)C5CCOCC5)[nH]4)ccc32)[nH]1)C(C)C (single isomer, unassigned) [Compound 627]",IC50,HCV replicon 1A; HCV replicon 1A,3.02 pM
same,IC50,HCV replicon 1AY93H; [3],0.0157 nM
same,IC50,HCV replicon 2B; [2],0.631 nM
CCN(CC)[C@@H](C(=O)N1C[C@H](F)C[C@H]1c1nc(-c2ccc3c(c2)cc2n3C(c3cc(C)c(C)s3)Oc3cc(-c4c[nH]c([C@@H]5C[C@@H](F)CN5C(=O)[C@@H](NC(=O)OC)C(C)C)n4)ccc3-2)c[nH]1)c1ccccc1 (mixture of isomers) [Compound 724],IC50,HCV replicon 1A; [5],63 pM
same,IC50,HCV replicon 1AY93H; [1],0.37 nM
same,IC50,HCV replicon 2B; [6],15.3 nM
"CCc1ccc(C2Oc3cc(-c4cnc([C@@H]5CCCN5C(=O)[C@@H](NC(=O)OC)C(C)C)[nH]4)cc(F)c3-c3cc4cc(-c5cnc([C@@H]6CCCN6C(=O)C(NC(=O)OC)C6CCOC(C)(C)C6)[nH]5)ccc4n32)s1 (single isomer, unassigned) [Compound 147]",IC50,HCV replicon 1A; replicon 1A,2.5 pM
same,IC50,HCV replicon 1AY93H; [4],0.43 nM
same,IC50,"HCV replicon 2B; read-out: 2B IC50, replicon 2B",0.62 nM
"COC(=O)N[C@H](C(=O)N1CCC[C@H]1c1cnc(-c2ccc3c(c2)cc2n3C(c3cc4ccccc4s3)Oc3cc(-c4cnc([C@@H]5CCCN5C(=O)[C@@H](NC(=O)OC)C5CCOCC5)[nH]4)ccc3-2)[nH]1)C1CCOCC1 (single isomer, unassigned) [Compound 811]",IC50,HCV replicon 1A; HCV replicon 1A,42 pM
same,IC50,HCV replicon 1AY93H; [3],0.058 nM
same,IC50,HCV replicon 2B; [2],0.664 nM
"COC(=O)NC(C(=O)N1CCC[C@H]1c1ncc(-c2cc(F)c3c(c2)OC(c2ccc(C4CCC4)s2)n2c-3cc3cc(-c4cnc([C@@H]5CCCN5C(=O)[C@@H](NC(=O)OC)C5CCOCC5)[nH]4)ccc32)[nH]1)C(C)(C)F (single isomer, unassigned) [Compound 249]",IC50,HCV replicon 1A; replicon 1A,22.8 pM
same,IC50,HCV replicon 1AY93H; [4],1.18 nM
same,IC50,"HCV replicon 2B; read-out: 2B IC50, replicon 2B",5.04 nM
"CCc1ccc(C2Oc3cc(-c4cnc([C@@H]5CCCN5C(=O)[C@@H](NC(=O)OC)C(C)C)[nH]4)cc(F)c3-c3cc4cc(-c5cnc([C@@H]6CCCN6C(=O)C(NC(=O)OC)C6C[C@@H](C)O[C@@H](C)C6)[nH]5)ccc4n32)s1 (single isomer, unassigned) [Compound 142]",IC50,HCV replicon 1A; replicon 1A,2 pM
same,IC50,HCV replicon 1AY93H; [4],0.25 nM
same,IC50,"HCV replicon 2B; read-out: 2B IC50, replicon 2B",0.48 nM
"COC(=O)N[C@H](C(=O)N1CCC[C@H]1c1ncc(-c2cc(F)c3c(c2)OC(c2scc4c2OCCO4)n2c-3cc3cc(-c4cnc([C@@H]5CCCN5C(=O)[C@@H](NC(=O)OC)C(C)C)[nH]4)ccc32)[nH]1)C(C)C (single isomer, unassigned) [Compound 523]",IC50,HCV replicon 1A; HCV replicon 1A,3.2 pM
same,IC50,HCV replicon 1AY93H; [1],11.7 nM
same,IC50,HCV replicon 2B; [2],12.4 nM
"COC(=O)N[C@H](C(=O)N1CCC[C@H]1c1ncc(-c2cc(F)c3c(c2)OC(c2cc(C)c(C)s2)n2c-3cc3cc(-c4cnc([C@@H]5C[C@@H](F)CN5C(=O)[C@@H](NC(=O)OC)C(C)C)[nH]4)ccc32)[nH]1)C(C)C (single isomer, unassigned) [Compound 515]",IC50,HCV replicon 1A; HCV replicon 1A,10.3 pM
same,IC50,HCV replicon 1AY93H; [3],6.54 nM
same,IC50,HCV replicon 2B; [2],18.7 nM
"COC(=O)NC(C(=O)N1CCC[C@H]1c1ncc(-c2ccc3c(c2)cc2n3C(c3cc4c(s3)CCC4)Oc3cc(-c4cnc([C@@H]5CCCN5C(=O)[C@@H](NC(=O)OC)C(C)C)[nH]4)cc(F)c3-2)[nH]1)C1CCOC(C)(C)C1 (single isomer, unassigned) [Compound 405]",IC50,"HCV replicon 1A; Hepatitis C virus, replicon 1A",2.3 pM
same,IC50,HCV replicon 1AY93H; [7],0.0133 nM
same,IC50,HCV replicon 2B; [8],0.0042 nM
"COC(=O)N[C@H](C(=O)N1CCC[C@H]1c1ncc(-c2ccc3c(c2)OC(c2cc4ccccc4s2)n2c-3cc3cc(-c4cnc([C@@H]5C[C@@H](F)CN5C(=O)[C@@H](NC(=O)OC)C5CCOCC5)[nH]4)ccc32)[nH]1)C(C)C (single isomer, unassigned) [Compound 626]",IC50,HCV replicon 1A; [5],2.09 pM
same,IC50,HCV replicon 1AY93H; [3],0.013 nM
same,IC50,HCV replicon 2B; [2],0.179 nM
COC(=O)N[C@H](C(=O)N1C[C@H](F)C[C@H]1c1ncc(-c2ccc3c(c2)OC(c2ccc(C4CC4)s2)n2c-3cc3cc(-c4cnc([C@@H]5C[C@@H](F)CN5C(=O)[C@@H](NC(=O)OC)C5CCOCC5)[nH]4)ccc32)[nH]1)C1CCOCC1 (mixture of isomers) [Compound 734],IC50,HCV replicon 1A; [5],420 pM
same,IC50,HCV replicon 1AY93H; [1],0.24 nM
same,IC50,HCV replicon 2B; [6],116 nM
"CCc1ccc(C2Oc3cc(-c4cnc([C@@H]5CCCN5C(=O)[C@@H](NC(=O)OC)C(C)C)[nH]4)cc(C)c3-c3cc4cc(-c5cnc([C@@H]6CCCN6C(=O)C(NC(=O)OC)C6C[C@@H](C)O[C@H](C)C6)[nH]5)ccc4n32)s1 (single isomer, unassigned) [Compound 546]",IC50,HCV replicon 1A; HCV replicon 1A,13.8 pM
same,IC50,HCV replicon 1AY93H; [3],0.268 nM
same,IC50,HCV replicon 2B; [2],0.0542 nM
"COC(=O)N[C@H](C(=O)N1CCC[C@H]1c1ncc(-c2cc(C)c3c(c2)OC(c2ccc(C4CC4)s2)n2c-3cc3cc(-c4cnc([C@@H]5CCCN5C(=O)[C@@H](NC(=O)OC)C(C)C)[nH]4)ccc32)[nH]1)C(C)C (single isomer, unassigned) [Compound 752]",IC50,HCV replicon 1A; HCV replicon 1A,2.8 pM
same,IC50,HCV replicon 1AY93H; [3],2.7 nM
same,IC50,HCV replicon 2B; [2],0.6 nM
"COC(=O)N[C@H](C(=O)N1CCC[C@H]1c1ncc(-c2cc(F)c3c(c2)OC(c2ccc(C(C)(C)C)s2)n2c-3cc3cc(-c4cnc([C@@H]5CCCN5C(=O)[C@@H](NC(=O)OC)C(C)C)[nH]4)ccc32)[nH]1)C(C)C (single isomer, unassigned) [Compound 62]",IC50,"HCV replicon 1A; Hepatitis C virus, replicon 1A",1.4 pM
same,IC50,HCV replicon 1AY93H; [7],0.69 nM
same,IC50,HCV replicon 2B; [8],2.88 nM
"COC(=O)NC(C(=O)N1CCC[C@H]1c1ncc(-c2ccc3c(c2)cc2n3C(c3ccc(C(C)C)s3)Oc3cc(-c4cnc([C@@H]5CCCN5C(=O)[C@@H](NC(=O)OC)C(C)C)[nH]4)cc(F)c3-2)[nH]1)C1C[C@@H](C)O[C@@H](C)C1 (single isomer, unassigned) [Compound 232]",IC50,HCV replicon 1A; replicon 1A,2.7 pM
same,IC50,HCV replicon 1AY93H; [4],0.2 nM
same,IC50,"HCV replicon 2B; read-out: 2B IC50, replicon 2B",0.63 nM
"COC(=O)N[C@H](C(=O)N1CCC[C@H]1c1ncc(-c2ccc3c(c2)OC(c2cc(C)c(C)s2)n2c-3cc3cc(-c4cnc([C@@H]5C[C@H]6C[C@H]6N5C(=O)[C@@H](NC(=O)OC)C(C)C)[nH]4)ccc32)[nH]1)C(C)C (single isomer, unassigned) [Compound 503]",IC50,HCV replicon 1A; HCV replicon 1A,67.6 pM
same,IC50,HCV replicon 1AY93H; [3],1.76 nM
same,IC50,HCV replicon 2B; [2],7.51 nM
"COC(=O)N[C@H](C(=O)N1CCC[C@H]1c1ncc(-c2cc(F)c3c(c2)OC(c2scc4c2OCCO4)n2c-3cc3cc(-c4cnc([C@@H]5C[C@H](F)CN5C(=O)[C@@H](NC(=O)OC)C(C)C)[nH]4)ccc32)[nH]1)C(C)C (single isomer, unassigned) [Compound 526]",IC50,HCV replicon 1A; [5],7.76 pM
same,IC50,HCV replicon 1AY93H; [1],4.79 nM
same,IC50,HCV replicon 2B; [6],33.3 nM
"COC(=O)N[C@H](C(=O)N1CCC[C@H]1c1ncc(-c2ccc3c(c2)OC(c2ccc(C4CC4)s2)n2c-3cc3cc(-c4cnc([C@@H]5CCCN5C(=O)[C@@H](NC(=O)OC)C5CCOCC5)[nH]4)ccc32)[nH]1)C(C)C (single isomer, unassigned) [Compound 334]",IC50,"HCV replicon 1A; Hepatitis C virus, replicon 1A",2.4 pM
same,IC50,HCV replicon 1AY93H; [4],0.159 nM
same,IC50,"HCV replicon 2B; read-out: 2B IC50, replicon 2B",0.0768 nM
"COCC(C)(C)c1ccc(C2Oc3cc(-c4cnc([C@@H]5CCCN5C(=O)[C@@H](NC(=O)OC)C(C)C)[nH]4)cc(F)c3-c3cc4cc(-c5cnc([C@@H]6CCCN6C(=O)[C@@H](NC(=O)OC)C(C)C)[nH]5)ccc4n32)s1 (single isomer, unassigned) [Compound 400]",IC50,HCV replicon 1A; replicon 1A,1.7 pM
same,IC50,HCV replicon 1AY93H; [4],0.151 nM
same,IC50,"HCV replicon 2B; read-out: 2B IC50, replicon 2B",1.69 nM
"COC(=O)N[C@H](C(=O)N1CCC[C@H]1c1ncc(-c2cc(F)c3c(c2)OC(c2ccc(C(F)(F)F)s2)n2c-3cc3cc(-c4cnc([C@@H]5CCCN5C(=O)[C@@H](NC(=O)OC)C5CCOCC5)[nH]4)ccc32)[nH]1)C(C)C (single isomer, unassigned) [Compound 655]",IC50,HCV replicon 1A; HCV replicon 1A,1.59 pM
same,IC50,HCV replicon 1AY93H; [3],0.278 nM
same,IC50,HCV replicon 2B; [2],0.24 nM
"COC(=O)N[C@H](C(=O)N1CCC[C@H]1c1ncc(-c2ccc3c(c2)OC(c2cc4ccccc4s2)n2c-3cc3cc(-c4cnc([C@@H]5C[C@@H](F)CN5C(=O)[C@@H](NC(=O)OC)C5CCOCC5)[nH]4)ccc32)[nH]1)C1CCOCC1 (single isomer, unassigned) [Compound 812]",IC50,HCV replicon 1A; [5],34 pM
same,IC50,HCV replicon 1AY93H; [3],0.44 nM
same,IC50,HCV replicon 2B; [2],0.15 nM
"COC(=O)N[C@H](C(=O)N1C[C@H](F)C[C@H]1c1nc(-c2ccc3c(c2)OC(c2ccc(C)s2)n2c-3cc3cc(-c4c[nH]c([C@@H]5C[C@H]6C[C@H]6N5C(=O)[C@@H](NC(=O)OC)C5CCOCC5)n4)ccc32)c[nH]1)C1CCOCC1 (single isomer, unassigned) [Compound 730]",IC50,HCV replicon 1A; HCV replicon 1A,67 pM
same,IC50,HCV replicon 1AY93H; [3],0.06 nM
same,IC50,HCV replicon 2B; [2],0.13 nM
